In PMC11012124, “Synthesis of Novel Triazine-Based Chalcones and 8,9-dihydro-7H-pyrimido[4,5-b][1,4]diazepines as Potential Leads in the Search of Anticancer, Antibacterial and Antifungal Agents” (International Journal of Molecular Sciences, 2024):

Key:
[1] = system: 60 cancer cell lines; assay: NCI-60 one-dose screen (10 μM); assay type: cell-based; settings: Homo sapiens; one dose of 10 μM, mean over 60 cancer cell lines; read-out: Mean Growth Percent (MGP)
Excerpt: Additionally, the mean of the growth percentages (MGP) of each compound against all the 60 cancer cell lines is also reported, which is used as one of the selection criteria to continue with tests at five concentration doses.

[2] = system: MOLT-4; assay: cells; settings: Homo sapiens, MOLT-4, 48 h; for CC50: read-out: LC50
[3] = system: RPMI-8226; assay: cells; settings: Homo sapiens, RPMI-8226, 48 h; for CC50: read-out: LC50
[4] = system: A549/ATCC; assay: cells; settings: Homo sapiens, A549, 48 h; for CC50: read-out: LC50
[5] = system: EKVX; assay: cells; settings: Homo sapiens, 48 h; for CC50: read-out: LC50
[6] = system: HOP-62; assay: cells; settings: Homo sapiens, HOP-62, 48 h; for CC50: read-out: LC50
[7] = system: HOP-92; assay: cells; settings: Homo sapiens, HOP-92, 48 h; for CC50: read-out: LC50
[8] = system: NCI-H226; assay: cells; settings: Homo sapiens, NCI-H226, 48 h; for CC50: read-out: LC50
[9] = system: NCI-H23; assay: cells; settings: Homo sapiens, NCI-H23, 48 h; for CC50: read-out: LC50
[10] = system: NCI-H322M; assay: cells; settings: Homo sapiens, 48 h; for CC50: read-out: LC50
[11] = system: COLO 205; assay: cells; settings: Homo sapiens, COLO 205, 48 h; for CC50: read-out: LC50
[12] = system: HCC-2998; assay: cells; settings: Homo sapiens, HCC 2998, 48 h; for CC50: read-out: LC50
[13] = system: HCT-116; assay: cells; settings: Homo sapiens, HCT-116, 48 h; for CC50: read-out: LC50
[14] = system: HCT-15; assay: cells; settings: Homo sapiens, HCT-15, 48 h; for CC50: read-out: LC50
[15] = system: HT29; assay: cells; settings: Homo sapiens, HT-29, 48 h; for CC50: read-out: LC50
[16] = system: SF-268; assay: cells; settings: Homo sapiens, SF-268, 48 h; for CC50: read-out: LC50
[17] = system: SF-295; assay: cells; settings: Homo sapiens, SF-295, 48 h; for CC50: read-out: LC50
[18] = system: SF-539; assay: cells; settings: Homo sapiens, SF-539, 48 h; for CC50: read-out: LC50, SF-539, 48 h
[19] = system: SNB-19; assay: cells; settings: Homo sapiens, SNB-19, 48 h; for CC50: read-out: LC50
[20] = system: U251; assay: cells; settings: Homo sapiens, U-251, 48 h; for GI50: U251, 48 h; for CC50: read-out: LC50
[21] = system: LOX IMVI; assay: cells; settings: Homo sapiens, 48 h; for CC50: read-out: LC50, LOX IMVI, 48 h
[22] = system: M14; assay: cells; settings: Homo sapiens, M14, 48 h; for CC50: read-out: LC50
[23] = system: SK-MEL-5; assay: cells; settings: Homo sapiens, SK-MEL-5, 48 h; for CC50: read-out: LC50
[24] = system: UACC-257; assay: cells; settings: Homo sapiens, UACC-257, 48 h; for CC50: read-out: LC50
[25] = system: UACC-62; assay: cells; settings: Homo sapiens, UACC-62, 48 h; for CC50: read-out: LC50
[26] = system: OVCAR-3; assay: cells; settings: Homo sapiens, OVCAR-3, 48 h; for CC50: read-out: LC50
[27] = system: 786-0; assay: cells; settings: Homo sapiens, 786-0, 48 h; for CC50: read-out: LC50
[28] = system: A498; assay: cells; settings: Homo sapiens, A498, 48 h; for CC50: read-out: LC50
[29] = system: ACHN; assay: cells; settings: Homo sapiens, 48 h; for CC50: read-out: LC50
[30] = system: RXF 393; assay: cells; settings: Homo sapiens, RXF 393, 48 h; for CC50: read-out: LC50
[31] = system: UO-31; assay: cells; settings: Homo sapiens, UO-31, 48 h; for CC50: read-out: LC50
[32] = system: PC-3; assay: cells; settings: Homo sapiens, PC-3, 48 h; for CC50: read-out: LC50
[33] = system: MDA-MB-231/ATCC; assay: cells; settings: Homo sapiens, MDA-MB-231, 48 h; for CC50: read-out: LC50
[34] = system: HS 578T; assay: cells; settings: Homo sapiens, 48 h; for CC50: read-out: LC50
[35] = system: BT-549; assay: cells; settings: Homo sapiens, BT-549, 48 h; for CC50: read-out: LC50
[36] = system: MDA-MB-468; assay: cells; settings: Homo sapiens, MDA-MB-468, 48 h; for CC50: read-out: LC50

CN(C)c1nc(NCCNS(=O)(=O)c2ccc(C(=O)/C=C/c3ccc(Cl)cc3)cc2)nc(N2CCOCC2)n1 [23e]
activity at 10 µM [1]: 6.74%
GI50 [2]: 3.38 µM
CC50 [2]: > 100 µM
GI50 [3]: 2.55 µM
CC50 [3]: > 100 µM
GI50 [4]: 14.4 µM
CC50 [4]: 56.4 µM
GI50 [5]: 14.8 µM
CC50 [5]: 55.7 µM
GI50 [6]: 17.5 µM
CC50 [6]: 65.8 µM
GI50 [7]: 15.1 µM
CC50 [7]: 67.8 µM
GI50 [8]: 15.7 µM
CC50 [8]: 73.8 µM
GI50 [9]: 15.7 µM
CC50 [9]: 55.6 µM
GI50 [10]: 14.4 µM
CC50 [10]: 52.4 µM
GI50 [11]: 16.7 µM
CC50 [11]: 70.8 µM
GI50 [12]: 16.7 µM
CC50 [12]: 56.7 µM
GI50 [13]: 11.7 µM
CC50 [13]: 50.7 µM
GI50 [14]: 2.07 µM
CC50 [14]: 9.93 µM
GI50 [15]: 3.21 µM
CC50 [15]: 36.4 µM
GI50 [16]: 17.7 µM
CC50 [16]: > 100 µM
GI50 [17]: 13.3 µM
CC50 [17]: 52.8 µM
GI50 [18]: 14.7 µM
CC50 [18]: 52.9 µM
GI50 [19]: 14.2 µM
CC50 [19]: 52.1 µM
GI50 [20]: 8.16 µM
CC50 [20]: 45.9 µM
GI50 [21]: 1.71 µM
CC50 [21]: 6.13 µM
GI50 [22]: 14.1 µM
CC50 [22]: 56.9 µM
GI50 [23]: 16.3 µM
CC50 [23]: 55.6 µM
GI50 [24]: 16.2 µM
CC50 [24]: 55.7 µM
GI50 [25]: 11.4 µM
CC50 [25]: 49.1 µM
GI50 [26]: 17.9 µM
CC50 [26]: 70.5 µM
GI50 [27]: 14.8 µM
CC50 [27]: 55.9 µM
GI50 [28]: 12.4 µM
CC50 [28]: 50.8 µM
GI50 [29]: 13.5 µM
CC50 [29]: 51.3 µM
GI50 [30]: 12.8 µM
CC50 [30]: 57.1 µM
GI50 [31]: 11.4 µM
CC50 [31]: 48.4 µM
GI50 [32]: 13 µM
CC50 [32]: 67 µM
GI50 [33]: 13.3 µM
CC50 [33]: 52.7 µM
GI50 [34]: 15.8 µM
CC50 [34]: > 100 µM
GI50 [35]: 15.3 µM
CC50 [35]: 56 µM
GI50 [36]: 11 µM
CC50 [36]: 56 µM

CN(C)c1nc(NCCNS(=O)(=O)c2ccc(C(=O)/C=C/c3ccc(F)cc3)cc2)nc(N2CCOCC2)n1 [23f]
activity at 10 µM [1]: 27.6%
GI50 [2]: 4.69 µM
CC50 [2]: > 100 µM
GI50 [3]: 1.91 µM
CC50 [3]: > 100 µM
GI50 [4]: 13.7 µM
CC50 [4]: 56.8 µM
GI50 [5]: 14.4 µM
CC50 [5]: 53.8 µM
GI50 [6]: 16.1 µM
CC50 [6]: 61.8 µM
GI50 [7]: 12.7 µM
CC50 [7]: 63.5 µM
GI50 [8]: 12.3 µM
CC50 [8]: 64.7 µM
GI50 [9]: 14.6 µM
CC50 [9]: 54.3 µM
GI50 [10]: 13.2 µM
CC50 [10]: 50.9 µM
GI50 [11]: 14.6 µM
CC50 [11]: 62.4 µM
GI50 [12]: 16 µM
CC50 [12]: 56 µM
GI50 [13]: 2.29 µM
CC50 [13]: 16.8 µM
GI50 [14]: 2.15 µM
CC50 [14]: 13.7 µM
GI50 [15]: 2.84 µM
CC50 [15]: 32.3 µM
GI50 [16]: 15 µM
CC50 [16]: 94 µM
GI50 [17]: 11.3 µM
CC50 [17]: 50.1 µM
GI50 [18]: 13.2 µM
CC50 [18]: 51.1 µM
GI50 [19]: 13.4 µM
CC50 [19]: 52.1 µM
GI50 [20]: 4.74 µM
CC50 [20]: 41.5 µM
GI50 [21]: 1.63 µM
CC50 [21]: 6.19 µM
GI50 [22]: 15 µM
CC50 [22]: 62.2 µM
GI50 [23]: 15.7 µM
CC50 [23]: 54.4 µM
GI50 [24]: 15.5 µM
CC50 [24]: 54.9 µM
GI50 [25]: 10.8 µM
CC50 [25]: 49.1 µM
GI50 [26]: 14.6 µM
CC50 [26]: 55.7 µM
GI50 [27]: 14.5 µM
CC50 [27]: 57 µM
GI50 [28]: 11.9 µM
CC50 [28]: 49.9 µM
GI50 [29]: 13.1 µM
CC50 [29]: 51.4 µM
GI50 [30]: 8.82 µM
CC50 [30]: 46.5 µM
GI50 [31]: 11 µM
CC50 [31]: 47.9 µM
GI50 [32]: 11.2 µM
CC50 [32]: 58.5 µM
GI50 [33]: 12.3 µM
CC50 [33]: 51.8 µM
GI50 [34]: 14.6 µM
CC50 [34]: > 100 µM
GI50 [35]: 15.1 µM
CC50 [35]: 56.7 µM
GI50 [36]: 8.08 µM
CC50 [36]: 54.7 µM
